Measurements: PubChem BioAssay (NCI)
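GI50 marks 50% less growth. At the TGI there is no net growth.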

Columns and labels:
Assay in all cases: inhibition of tumour cell growth, NCI panel, 384-well format
NCI-H226 lung = tested on: NCI-H226 lung
NCI-H23 lung = tested on: NCI-H23 lung
NCI-H322M lung = tested on: NCI-H322M lung
NCI-H460 NSCLC = tested on: NCI-H460 NSCLC
NCI-H522 lung = tested on: NCI-H522 lung
NCI/ADR-RES ovarian = tested on: NCI/ADR-RES ovarian
OVCAR-3 ovarian = tested on: OVCAR-3 ovarian
OVCAR-4 ovarian = tested on: OVCAR-4 ovarian
OVCAR-5 ovarian = tested on: OVCAR-5 ovarian
OVCAR-8 ovarian = tested on: OVCAR-8 ovarian
PC-3 prostate = tested on: PC-3 prostate
RPMI-8226 leukemia = tested on: RPMI-8226 leukemia
RXF 393 renal = tested on: RXF 393 renal
SF-268 CNS = tested on: SF-268 CNS
SF-295 CNS = tested on: SF-295 CNS
SF-539 CNS = tested on: SF-539 CNS
SK-MEL-28 melanoma = tested on: SK-MEL-28 melanoma
SK-MEL-5 melanoma = tested on: SK-MEL-5 melanoma
SK-OV-3 ovarian = tested on: SK-OV-3 ovarian
SN12C renal = tested on: SN12C renal
SNB-19 CNS = tested on: SNB-19 CNS
SNB-75 CNS = tested on: SNB-75 CNS
SR leukemia = tested on: SR leukemia
SW-620 colon = tested on: SW-620 colon
T-47D breast = tested on: T-47D breast
TK-10 renal = tested on: TK-10 renal
UACC-257 melanoma = tested on: UACC-257 melanoma
UACC-62 melanoma = tested on: UACC-62 melanoma
UO-31 renal = tested on: UO-31 renal

## COc1cc2c(cc1-c1c(C)noc1C)cc(C)c(=O)n2Cc1ccccn1
NCI-H226 lung
  TGI: 5740 nM
NCI-H23 lung
  GI50: 742 nM
  TGI: 5190 nM
NCI-H322M lung
  GI50: 1090 nM
  TGI: 31700 nM
NCI-H460 NSCLC
  GI50: 2120 nM
  TGI: 17500 nM
NCI-H522 lung
  GI50: 202 nM
  TGI: 817 nM
NCI/ADR-RES ovarian
  GI50: 371 nM
  TGI: 2470 nM
OVCAR-3 ovarian
  GI50: 374 nM
  TGI: 1650 nM
OVCAR-4 ovarian
  GI50: 188 nM
  TGI: 586 nM
OVCAR-5 ovarian
  GI50: 496 nM
  TGI: 21300 nM
OVCAR-8 ovarian
  GI50: 430 nM
  TGI: 9450 nM
PC-3 prostate
  GI50: 1820 nM
  TGI: > 100000 nM
RPMI-8226 leukemia
  GI50: 106 nM
  TGI: 316 nM
RXF 393 renal
  GI50: 1980 nM
  TGI: 15300 nM
SF-268 CNS
  GI50: 2010 nM
  TGI: 11300 nM
SF-295 CNS
  GI50: 1750 nM
  TGI: 24900 nM
SF-539 CNS
  GI50: 805 nM
  TGI: 7540 nM
SK-MEL-28 melanoma
  GI50: 628 nM
  TGI: 6770 nM
SK-MEL-5 melanoma
  GI50: 527 nM
  TGI: 2380 nM
SK-OV-3 ovarian
  GI50: 433 nM
  TGI: 3610 nM
SN12C renal
  GI50: 2180 nM
  TGI: 21500 nM
SNB-19 CNS
  GI50: 1130 nM
  TGI: 23600 nM
SNB-75 CNS
  GI50: 487 nM
  TGI: > 100000 nM
SR leukemia
  GI50: 140 nM
  TGI: 1150 nM
SW-620 colon
  GI50: 1680 nM
  TGI: 14400 nM
T-47D breast
  GI50: 313 nM
  TGI: 3060 nM
TK-10 renal
  GI50: 367 nM
  TGI: 3810 nM
UACC-257 melanoma
  GI50: 373 nM
  TGI: 4710 nM
UACC-62 melanoma
  GI50: 190 nM
  TGI: 1440 nM
UO-31 renal
  GI50: 2890 nM
  TGI: > 100000 nM
